Read-outs that look alike come from different tables or passages of the source.
What was measured:
[1] = tested on: plasma cells (CD138+ cells) within bone marrow mononuclear cell samples from AL amyloidosis patients; assay: Multiplexed high throughput flow cytometry cytotoxicity assay on patient-derived bone marrow mononuclear cells; type: cell-based, human; conditions: for EC50: Homo sapiens; for Cytotoxicity compared to melphalan: in vitro AL amyloidosis cell model, identical concentrations; for Response of plasma cells (CD138+ cells) to treatment: 1 to 100,000 nM
Procedure: Viably frozen bone marrow mononuclear cells (MNC) from 11 amyloidosis patients were received from a biobank.
Viably frozen cells were thawed and incubated overnight to exclude apoptotic cells. On Day 1, a homogeneous cell suspension at a density of 2×10^6 cells/ml was prepared in RPMI 1640 medium (Lonza) supplemented with 10% fetal bovine serum, 2 mM L-glutamine, penicillin (100 U/ml), streptomycin (100 μg/ml) and 25% conditioned medium from the HS-5 human BM stromal cell line. Melflufen powders were stored in pre-weighted amounts in vials in oxygen and moisture free storage pods. Fresh 10 mM melflufen aliquots were prepared in DMSO. Serial dilutions were prepared in cell culture media and immediately transferred to 96 well plate containing mononuclear cells.
A multiplexed high throughput flow cytometer based assay (iQue® Screener PLUS) was applied, allowing simultaneous monitoring of drug responses in multiple hematopoietic cell subsets. A panel of eight antibodies against CD8, CD14, CD19, CD38, CD45, CD56, CD138 and CD269 were purchased. Annexin-V and 7-AAD were included to exclude dead or apoptotic cells from the analysis. Optimal antibody concentrations were determined and fluorescence compensations were computed to correct spectral overlaps between different fluorochromes. The plates containing melflufen treated cells were incubated in a humidified environment at 37° C. and 5% CO2. After 72 h, antibody cocktails were added to the wells and incubated for 30 min before the plates were read with the iQue® Screener PLUS instrument (Intellicyt®). The data was analyzed using ForeCyt software (Intellicyt). Graphpad Prism 7.0 to generate dose response graphs. Singlet mononuclear cells were subjected to dead and apoptotic cell exclusion using DNA staining dye 7-AAD and expression of Annexin-V surface antigens. Live cell counts for each cell populations were used to analyse effect of different doses on cell viability. Surviving cell fraction were computed by normalizing with viability of untreated cells for each cell subsets.
Melflufen was tested in six concentration over 100,000-fold dilutions (1 to 100,000 nM). Out of 12 cell samples tested, two samples were excluded due to poor viability. The viable samples were assigned the reference numbers AL-1886, AL-2983, AL-4839_2, AL-4839_3, AL-4847, AL-5691, AL-5716, AL-5807, AL-7219, AL-400081.

ALMC-1 cell line = assay: Cell viability by CellTiter-Blue, ALMC-1; type: cell-based, human; conditions: 72 h
Procedure: (§1) Cellular toxicity was measured in response to either melflufen or melphalan in the amyloidosis patient-derived light chain secreting ALMC-1 and ALMC-2 cell lines, and the light chain secreting cell line JJN3.
(§2) Cells were plated in a 96-well format in the presence of the indicated compound in doses ranging from 0.014 to 10 mM for 72 hours at 37° C. Cell viability was determined by CellTiter-Blue™ using the manufacturer's standard protocol. Lambda and kappa light chain secretion was measured in the supernatant of cells by ELISA.
(§3) In more detail, for each cell line (JJN3, ALMC-1 and ALMC-2) cells were harvested, washed, re-suspended into full growth media and counted. The cells were seeded at the cell densities shown in Table 1, below, into the inner 60 wells of a 96-well assay plates (Corning, black-wall plates, Cat #3904) in 50 μl/well aliquots. The plates were incubated overnight at 37° C. in 5% humidified CO2. 10 mM stocks of melphalan or melflufen-HCl were used, and sub-aliquots were prepared from the 10 mM stocks of melphalan or melflufen-HCl by diluting the stock. […]
(§4) 50 microliters per well of compound/vehicle dilutions were added to the plates in replicates of 3 and incubated for 72 h at 37° C. in 5% humidified CO2. […] Fluorescence was measured using a VarioSkan Flash plate reader (570 nm excitation wavelength, 600 nm emission wavelength).

ALMC-2 cell line = assay: Cell viability by CellTiter-Blue, ALMC-2; type: cell-based, human; conditions: 72 h
Procedure: as §1, §2, §3, §4

JJN3 cell line = assay: Cell viability by CellTiter-Blue, JJN3; type: cell-based, human; conditions: 72 h; for IC50: Homo sapiens, JJN-3, cell viability, CellTiter-Blue, doses 0.014 to 10 mM
Procedure: as §1, §2
(§5) In more detail, for each cell line (JJN3, ALMC-1 and ALMC-2) cells were harvested, washed, re-suspended into full growth media and counted. The cells were seeded at the cell densities shown in Table 1, below, into the inner 60 wells of a 96-well assay plates (Corning, black-wall plates, Cat #3904) in 50 μl/well aliquots. The plates were incubated overnight at 37° C. in 5% humidified CO2. 10 mM stocks of melphalan or melflufen-HCl were used, and sub-aliquots were prepared from the 10 mM stocks of melphalan or melflufen-HCl by diluting the stock. The diluted stock was added into cell culture media at the indicated concentrations for the experiment (0.014 to 10 mM).
50 microliters per well of compound/vehicle dilutions were added to the plates in replicates of 3 and incubated for 72 h at 37° C. in 5% humidified CO2. To develop the plates after 72 h, 20 μl of CellTiter-Blue™ reagent was added to each test/blank well. The plates were incubated at 37° C., 5% humidified CO2 for 1.5/3 h. Fluorescence was measured using a VarioSkan Flash plate reader (570 nm excitation wavelength, 600 nm emission wavelength).

[2] = tested on: lambda light chain secretion in ALMC-1 cells; assay: Human Lambda ELISA of light chain secretion, ALMC-1; type: cell-based; conditions: 72 h; for IC50: Homo sapiens, ALMC1, light chain secretion in supernatant
Procedure: as §2, §5
(§6) For analysis of secreted proteins, 72 h after incubation, the cells were pelleted by centrifugation at 300 RCF, 4° C. for 5 min and the supernatant taken and used immediately for ELISA analysis using commercial ELISA kits (below) and the manufacturer's protocols: • Human Kappa ELISA (Bethyl Laboratories, #E80-115) • Human Lambda ELISA (Bethyl Laboratories, #E80-116)

[3] = tested on: lambda light chain secretion in ALMC-2 cells; assay: Human Lambda ELISA of light chain secretion, ALMC-2; type: cell-based; conditions: 72 h; for IC50: Homo sapiens, ALMC2, light chain secretion in supernatant
Procedure: as §2, §5, §6

[4] = tested on: kappa light chain secretion in JJN3 cells; assay: Human Kappa ELISA of light chain secretion, JJN3; type: cell-based; conditions: 72 h
Procedure: as §2, §5, §6

[5] = tested on: MM.1S, RPMI-8826, U266 and ALMC-2 cells; assay: Apoptosis and unfolded protein response (UPR) markers in malignant cell lines; type: cell-based, human; conditions: all cell lines tested; 6 h, 12 h or 24 h
Procedure: The toxic effects of melflufen and melphalan were compared in malignant cell lines, including RPMI-8826, ALMC-2, MM1S, and U266 to confirm enhanced toxicity of melflufen compared to melphalan. ALMC-2 cells are derived from an amyloidosis patient. MM.1S, RPMI-8826, U266 or ALMC-2 cells were incubated in the presence or absence of melflufen-HCl or melphalan at the indicated concentrations in FIG. 5A for 6 h, 12 h or 24 h. Cells were then harvested and apoptosis and cell death in response to melflufen and melphalan were measured by Annexin V/propidium iodide and live/dead cell staining by flow cytometry, as well as analysis of cleaved caspases 3, 8, and 9 and PARP by western blot. Effects of melflufen and melphalan on the UPR were examined by analysis of UPR associated molecules including phosphorylated eIF2a, ATF4, IRE1a and PERK by immunoblot analysis using commercially available detection reagents and standard protocols, and ATF4, ATF6, PERK, IRE1 and CHOP by real time qPCR with gene specific primer sets. In addition, XBP-1 splicing was evaluated by PCR analysis.

AL amyloidosis = conditions: cited from earlier work

CCOC(=O)[C@H](Cc1ccc(F)cc1)NC(=O)[C@@H](N)Cc1ccc(N(CCCl)CCCl)cc1.Cl [melflufen, L-Melphalanyl-4-fluoro-L-phenylalanine ethyl ester]
EC50 ([1]; 72 h, sample AL-2983, 72 h, read-out: EC50, survival of plasma cells (CD138+ cells)): 0.007 µM
EC50 ([1]; 72 h, sample AL-4847, 72 h, read-out: EC50, survival of plasma cells (CD138+ cells)): 0.032 µM
EC50 ([1]; 72 h, sample AL-5807, 72 h, read-out: EC50, survival of plasma cells (CD138+ cells)): 0.001 µM
EC50 ([1]; cell samples obtained from a population of AL amyloidosis patients, lowest value, read-out: EC50 values as low as, in vitro AL amyloidosis cell model): ≥ 0.001 µM
Cytotoxicity compared to melphalan [1]: at least 100 times
Cytotoxicity compared to melphalan ([1]; listed as Melflufen): 100 times
Cytotoxicity in in vitro AL amyloidosis cell model ([1]; plasma cells obtained from patients): highly cytotoxic
Response of plasma cells (CD138+ cells) to treatment ([1]; samples AL-1886, AL-4839_2, AL-4839_3, AL-5716 and AL-7219, 72 h): no notable response
Response of plasma cells (CD138+ cells) to treatment ([1]; samples AL-2983, AL-4847, AL-5691, AL-5807 and AL-400081, 72 h): displayed sensitivity
Sensitivity compared with melphalan (ALMC-1 cell line; ALMC-1): increased sensitivity
IC50 (ALMC-1 cell line; Homo sapiens, ALMC1, cell viability, CellTiter-Blue, doses 0.014 to 10 mM): 1.6 µM
Sensitivity compared with melphalan (ALMC-2 cell line; ALMC-2): increased sensitivity
IC50 (ALMC-2 cell line; Homo sapiens, ALMC2, cell viability, CellTiter-Blue, doses 0.014 to 10 mM): 1.2 µM
IC50 (JJN3 cell line): 1.2 µM
Sensitivity compared with melphalan (JJN3 cell line; JJN3): increased sensitivity
Inhibition of light chain secretion compared to melphalan ([2]; ALMC-1): superior inhibition
IC50 [2]: 0.2 µM
Inhibition of light chain secretion compared to melphalan ([3]; ALMC-2): superior inhibition
IC50 [3]: 0.45 µM
IC50 ([4]; Homo sapiens, JJN-3, light chain secretion in supernatant): 2.9 µM
Inhibition of light chain secretion compared to melphalan ([4]; JJN3): superior inhibition
Sensitivity with regard to inducing apoptosis, XBP-1 splicing and markers of UPR and apoptosis, compared to melphalan [5]: significantly more sensitive to melflufen than melphalan

N[C@@H](Cc1ccc(N(CCCl)CCCl)cc1)C(=O)O [melphalan, reference compound]
IC50 (JJN3 cell line): 5.4 µM
IC50 [2]: 2.5 µM
IC50 [3]: 5.1 µM
Treatment-related toxicity and mortality (AL amyloidosis; high-dose melphalan (for example 200 mg/m^2) with autologous hematopoietic stem cell rescue): significant treatment-related toxicity and high treatment related mortality rates
Plasma cell levels and survival (AL amyloidosis; melphalan (for example 20-25 mg/m^2) in combination with prednisolone): reduce plasma cell levels and increase survival rates by a few months
